Source: US7803801B2, “Aminopyridine compounds having Syk inhibitory activity” (Japan Tobacco, Inc., priority 2005, dated 2010)
Structures can show the parent of a compound that is named as a salt.

target: GST-Syk Full Protein (human) (Homo sapiens, UniProt P43405); experiment: Syk kinase inhibition test (HTRF method); assay type: biochemical; conditions: HTRF, 100 μM ATP, 30 min room temperature, average; read-out: sykHTRF ave IC50
Method: Syk Kinase Inhibition Test (HTRF Method)
After the compounds were serially diluted with dimethylsulfoxide (DMSO), 10 μL of those 10-fold diluted with kinase buffer (20 mM HEPES pH 7.0, 10 mM MgCl2, 50 mM NaCl, 1 mM 2-ME, 0.05% BSA) was added to opti-plate HTRF-96 (Packard) (final DMSO concentration: 2%). 20 μL of a substrate solution (kinase buffer as mentioned above containing Syk Specific-Peptide Substrate Biot-EDPDYEWPSA-NH2 (Peptide Laboratory) 625 nM, 250 μM ATP (SIGMA) was added (final substrate concentration 250 nM, 100 μM ATP), and further 20 μL of an enzyme solution (kinase buffer as mentioned above containing GST-Syk Full Protein (human) 16 nM) (final concentration 6.4 nM) was added and the mixture was immediately stirred with a plate shaker to start enzyme reaction. After reacted at room temperature (20 to 25° C.) for 30 minutes, the enzyme reaction was terminated by adding 100 μL/well of a buffer for terminating and detecting the reaction (30 mM HEPES pH 7.0, 150 mM KF, 0.15% BSA, 0.075% Tween-20, 75 mM EDTA) containing HTRF reagent (5 μg/ml XL665-Streptavidin (CIS bio), 170 ng/ml Eu(K)-anti-PhosphoTyrosin, PT-66 (CIS bio)) (final concentration 20 mM HEPES pH 7.0, 100 mM KF, 0.1% BSA, 0.05% Tween-20, 50 mM EDTA). After allowed to stand still at room temperature for 1 hour, inhibitory effect of a compound against Syk kinase enzymatic activity was evaluated by measuring 665/620 fluorescence ratio to excitation light at 337 nm by ARVO (Wallac).

SMILES | IC50 [µM]
CNC(=O)c1nc([C@H](C)NC(C)=O)sc1-c1cccc(Nc2cc(C)ccn2)n1 [Compound A-118] | > 1

same assay, conditions: Tables 1-x, compounds A; read-out: sykHTRF ave IC50

SMILES | IC50 [µM]
Cc1ccnc(Nc2cccc(-c3cnc(N(C)C4CCN(C(=O)NC5CCCCC5)CC4)s3)n2)c1 [Compound A-696] | 0.1 to 1
Cc1ccnc(Nc2cccc(-c3cnc(NCCCCC(=O)O)s3)n2)c1 [Compound A-644, 5-{5-[6-(4-methylpyridin-2-ylamino)pyridin-2-yl]thiazol-2-ylamino}pentanoic acid] | < 0.1
Cc1ccnc(Nc2cccc(-c3cnc(CN4CCC(C(N)=O)CC4)s3)n2)c1 [Compound A-685, 1-{5-[6-(4-methylpyridin-2-ylamino)pyridin-2-yl]thiazol-2-ylmethyl}piperidine-4-carboxamide] | < 0.1
Cc1ccnc(Nc2cccc(-c3cnc(N(CCCCCO)C(C)C)s3)n2)c1 [Compound A-678, 5-(N-isopropyl-N-{5-[6-(4-methylpyridin-2-ylamino)pyridin-2-yl]thiazol-2-yl}amino)pentan-1-ol] | < 0.1
Cc1ccnc(Nc2cccc(-c3cnc(N4CCC[C@H]4C(=O)N[C@@H](C)C(=O)O)s3)n2)c1 [Compound A-566] | 0.1 to 1
Cc1ccnc(Nc2cccc(-c3cnc(CN4CCC[C@H]4C(=O)N(C)C)s3)n2)c1 [Compound A-664] | 0.1 to 1
CC(=CC(=O)O)CCCN(C)c1ncc(-c2cccc(Nc3cc(C)ccn3)n2)s1 [Compound A-656, 3-methyl-6-(N-methyl-N-{5-[6-(4-methylpyridin-2-ylamino)pyridin-2-yl]thiazol-2-yl}amino)hex-2-enoic acid dihydrochloride] | < 0.1
Cc1ccnc(Nc2cccc(-c3cnc(N4CCCc5ccc(C(=O)O)cc54)s3)n2)c1 [Compound A-621] | 0.1 to 1
C=CCN(CC=C)c1ncc(-c2cccc(Nc3cc(C)ccn3)n2)s1 [Compound A-507, N,N-diallyl-N-{5-[6-(4-methylpyridin-2-ylamino)pyridin-2-yl]thiazol-2-yl}amine] | < 0.1
NC(=O)[C@@H]1CCCN1c1ncc(-c2cccc(Nc3ccccn3)n2)s1 [Compound A-690] | 0.1 to 1
Cc1ccnc(Nc2cccc(-c3cnc(N(C)C4CCN(C(=O)C5CCC(O)CC5)CC4)s3)n2)c1 (stereo not drawn) [Compound A-672] | 0.1 to 1
Cc1ccnc(Nc2cccc(-c3cnc(N4CCC[C@@H](c5nnn[nH]5)C4)s3)n2)c1 [Compound A-590, N-(4-methylpyridin-2-yl)-N-(6-{2-[(R)-3-(1H-tetrazol-5-yl)piperidin-1-yl]thiazol-5-yl}pyridin-2-yl)amine] | < 0.1
Cc1ccnc(Nc2cccc(-c3cnc(CN4CCc5c(cccc5C(=O)O)C4)s3)n2)c1 [Compound A-608] | 0.1 to 1
Cc1ccnc(Nc2cccc(-c3cnc(N4C5CCC4CC(CC(=O)O)C5)s3)n2)c1 (stereo not drawn) [Compound A-649, (8-{5-[6-(4-methylpyridin-2-ylamino)pyridin-2-yl]thiazol-2-yl}-8-azabicyclo[3.2.1]oct-3-yl)acetic acid] | < 0.1
Cc1ccnc(Nc2cccc(-c3cnc(CN(C)CC(N)=O)s3)n2)c1 [Compound A-697, 2-(N-methyl-N-{5-[6-(4-methylpyridin-2-ylamino)pyridin-2-yl]thiazol-2-ylmethyl}amino)acetamide] | < 0.1
COC(=O)N(CCCC(=O)O)Cc1ncc(-c2cccc(Nc3cc(C)ccn3)n2)s1 [Compound A-585] | 0.1 to 1
Cc1cccnc1Nc1cccc(-c2cnc(N3CCC(CC(=O)O)CC3)s2)n1 [Compound A-630] | 0.1 to 1
Cc1ccnc(Nc2cccc(-c3cnc(N(C)C(C(N)=O)C(C)C)s3)n2)c1 (stereo not drawn) [Compound A-668, 3-methyl-2-(N-methyl-N-{5-[6-(4-methylpyridin-2-ylamino)pyridin-2-yl]thiazol-2-yl}amino)butylamide] | < 0.1
Cc1ccnc(Nc2cccc(-c3cnc(N(CCCCC(=O)O)C(C)C)s3)n2)c1 [Compound A-643, 5-(N-isopropyl-N-{5-[6-(4-methylpyridin-2-ylamino)pyridin-2-yl]thiazol-2-yl}amino)pentanoic acid] | < 0.1
CNC(=O)CN(C)Cc1ncc(-c2cccc(Nc3cc(C)ccn3)n2)s1 [Compound A-687] | 0.1 to 1
COc1ccc(C)cc1Nc1cccc(-c2cnc(N3CCC(CC(=O)O)CC3)s2)n1 [Compound A-708] | 0.1 to 1
Cc1ccnc(Nc2cccc(-c3cnc(CN4CCC[C@H]4C(N)=O)s3)n2)c1 [Compound A-667] | 0.1 to 1
Cc1ccnc(Nc2cccc(-c3cnc(N4CCC(C(=O)N5CCOCC5)CC4)s3)n2)c1 [Compound A-454] | 0.1 to 1
Cc1ccnc(Nc2cccc(-c3cnc(N4CCc5cc(CC(=O)O)ccc5C4)s3)n2)c1 [Compound A-641, (2-{5-[6-(4-methylpyridin-2-ylamino)pyridin-2-yl]thiazol-2-yl}-1,2,3,4-tetrahydroisoquinolin-6-yl)acetic acid] | < 0.1
Cc1ccnc(Nc2cccc(-c3cnc(N(C[C@H]4CC[C@H](C(=O)O)CC4)C(C)C)s3)n2)c1 [Compound A-626, trans-4-[(N-isopropyl-N-{5-[6-(4-methylpyridin-2-ylamino)pyridin-2-yl]thiazol-2-yl}amino)methyl]cyclohexanecarboxylic acid] | < 0.1
CC(=O)N1CCC(N(CCNC(=O)N(C)C)c2ncc(-c3cccc(Nc4cc(C)ccn4)n3)s2)CC1 [Compound A-523] | 0.1 to 1
Cc1ccnc(Nc2cccc(-c3cnc(N4CCC(C(F)C(=O)O)CC4)s3)n2)c1 (stereo not drawn) [Compound A-684, fluoro-(1-{5-[6-(4-methylpyridin-2-ylamino)pyridin-2-yl]thiazol-2-yl}piperidin-4-yl)acetic acid] | < 0.1
O=C(O)CC1CC2CCC(C1)N2c1ncc(-c2cccc(Nc3cc(C(F)(F)F)ccn3)n2)s1 (stereo not drawn) [Compound A-648, (8-{5-[6-(4-trifluoromethylpyridin-2-ylamino)pyridin-2-yl]thiazol-2-yl}-8-azabicyclo[3.2.1]oct-3-yl)acetic acid] | < 0.1
Cc1ccnc(Nc2cccc(-c3cnc(N(C)C4CCC(C(=O)NCCO)CC4)s3)n2)c1 (stereo not drawn) [Compound A-493, N-(2-hydroxyethyl)-4(N′-methyl-N′-{5-[6-(4-methylpyridin-2-ylamino)pyridin-2-yl]thiazol-2-yl}amino)cyclohexanecarboxamide] | < 0.1

same assay, conditions: Tables 2-x, thiophene compounds B; read-out: sykHTRK ave IC50

SMILES | IC50 [µM]
Cc1ccnc(Nc2cccc(-c3ccc(CN4CCCc5ccc(C(=O)O)cc54)s3)n2)c1 [Compound B-110] | 0.1 to 1
CC(=O)N(Cc1ccc(-c2cccc(Nc3cc(C)ccn3)n2)s1)C[C@H]1CC[C@H](C(=O)O)CC1 [Compound B-120, trans-4-[(N-acetyl-N-{5-[6-(4-methylpyridin-2-ylamino)pyridin-2-yl]thiophen-2-ylmethyl}amino)methyl]cyclohexanecarboxylic acid] | < 0.1
Cc1ccnc(Nc2cccc(-c3ccc(C(C)OCc4ccc(C(=O)O)cc4)s3)n2)c1 (stereo not drawn) [Compound B-108] | 0.1 to 1
Cc1ccnc(Nc2cccc(-c3ccc(C(=O)N4CCC(C(=O)O)CC4)s3)n2)c1 [Compound B-115] | 0.1 to 1
Cc1ccnc(Nc2cccc(-c3ccc(C(=O)NCc4ccc(C(=O)O)cc4)s3)n2)c1 [Compound B-112] | 0.1 to 1
Cc1ccnc(Nc2cccc(-c3ccc(CN(C)C(=O)c4ccc(C(=O)O)cc4)s3)n2)c1 [Compound B-125] | 0.1 to 1
